{
  "source": "ChEMBL document CHEMBL5537111",
  "about": "“Structure and function of SARS-CoV and SARS-CoV-2 main proteases and their inhibition: A comprehensive review” (Eur J Med Chem, 2023)",
  "test": "Inhibition of SARS-CoV-2 3CL protease Q189A mutant by FRET assay",
  "parameters": "species or system Severe acute respiratory syndrome coronavirus 2",
  "data": [
    {"smiles": "CC1(C)CCC(CN2CCN(c3ccc(C(=O)NS(=O)(=O)c4ccc(NCC5CCOCC5)c([N+](=O)[O-])c4)c(Oc4cnc5[nH]ccc5c4)c3)CC2)=C(c2ccc(Cl)cc2)C1", "note": "[VENETOCLAX]", "values": [
      {"measurement": "IC50", "result": 3.18, "unit": "µM"}
    ]}
  ]
}
